According to patent US11766469B2, “Q-peptide hydrogel promotes immune modulation and macrophage differentiation” (Quthero, Inc., priority 2019, dated 2023):

Columns and labels:
[1] = test system: bone marrow derived macrophages (BMDMs); assay: BMDM culture on hydrogel films: cell attachment, total cell count, viability (Zombie Violet); format: cell-based, C57BL/6 mice; conditions: after 24 hours of culture
Method: Murine bone marrow derived macrophages (BMDM) were isolated from 8-12 week-old C57BL/6 mice (Charles River) according to a protocol approved by the University of Toronto Animal Care Committee. The mice were euthanized, and the femur and tibias were removed and placed in complete RPMI 1640+L-glutamine media (Gibco, 10% heat inactivated Fetal Bovine Serum, FBS, 1% Pen/Strep). The bones were separated and sterilized in 70% ethanol for 10 minutes. The heads of the bones were cut off, and the marrow was flushed out with a 23 G needle containing fresh complete RPMI 1640 media. The remaining cell culture media and bone marrow was homogenized by gentle pipetting. The cells were spun down and resuspended in ACK Lysing Buffer (Gibco) for 1 min to lyse remaining red blood cells. The lysing buffer was diluted with PBS, and the cell suspension was re-spun, and counted. […]
Adherent macrophages were detached by incubating with 0.25% trypsin-EDTA for 10 minutes. […] After 24 hours of culture, cell culture media was collected for ELISA analysis by Eve Technologies (Calgary, AB), and the concentrations of INF-γ, IL-1β, IL-2, IL-4, IL-6, IL-10, IL-12 p′70, GM-CSF, MCP-1, TNF-α, TGF-β31, TGF-β2, and TGF-β3 were measured. […]

[2] = test system: rat myocardial infarction model; conditions: cited from earlier work
[3] = test system: bone marrow derived macrophages (BMDMs); assay: ELISA of cytokines released by BMDMs into culture media; format: cell-based, C57BL/6 mice; conditions: 24 hours of culture
Method: Murine bone marrow derived macrophages (BMDM) were isolated from 8-12 week-old C57BL/6 mice (Charles River) according to a protocol approved by the University of Toronto Animal Care Committee. The mice were euthanized, and the femur and tibias were removed and placed in complete RPMI 1640+L-glutamine media (Gibco, 10% heat inactivated Fetal Bovine Serum, FBS, 1% Pen/Strep). The bones were separated and sterilized in 70% ethanol for 10 minutes. The heads of the bones were cut off, and the marrow was flushed out with a 23 G needle containing fresh complete RPMI 1640 media. The remaining cell culture media and bone marrow was homogenized by gentle pipetting. The cells were spun down and resuspended in ACK Lysing Buffer (Gibco) for 1 min to lyse remaining red blood cells. The lysing buffer was diluted with PBS, and the cell suspension was re-spun, and counted. Cells were seeded at 3 million cells/well in non-adherent 6-well culture plates containing 2 mL of complete RPMI 1640 media with 20 ng/mL of Macrophage Colony Stimulating Factor (M-CSF, Miltenyi Biotec). Half (50%) of the media was changed on day 3, and 5. On day 7, adherent cells were used as macrophages for experiments. Macrophage purity, as identified by F4/80+, CD11b+ positive staining, under all culture stimulations is >90%, consistent with previous studies (FIG. 6B).
Adherent macrophages were detached by incubating with 0.25% trypsin-EDTA for 10 minutes. Cells were polarized in response to the following treatment conditions: blank-included cultivation on tissue culture plastics; soluble Q-Peptide (650 μM) applied to macrophages cultivated on tissue culture plastics; and macrophages cultivated on the following hydrogel films: no peptide collagen-chitosan (empty) film, scrambled Q-Peptide film, and Q-Peptide film. BMDMs were polarized with lipopolysaccharide (LPS; 100 ng/mL) for pro-inflammatory, M(LPS), and IL-4 ([…]) for anti-inflammatory, M(IL-4) positive polarization controls. Cells were seeded directly onto a non-adherent 6-well plate for the blank and soluble Q-Peptide conditions, and onto solvent cast films for the empty film, scrambled Q-Peptide film, and Q-Peptide film at a concentration of 100,000 cells/cm^2. After 24 hours of culture, cell culture media was collected for ELISA analysis by Eve Technologies (Calgary, AB), and the concentrations of INF-γ, IL-1β, IL-2, IL-4, IL-6, IL-10, IL-12 p′70, GM-CSF, MCP-1, TNF-α, TGF-β31, TGF-β2, and TGF-β3 were measured.

[4] = test system: wounds; conditions: wounds treated; cited from earlier work
[5] = compared to blank, soluble Q-Peptide and empty film (LPS: vs Q-Peptide film)

QHREDGS (SEQ ID NO: 1) with biotin-Ahx N-terminal modification [soluble Q-Peptide]
final cell count (cells in solution and attached) [1]: did not affect the final cell count
cell attachment (number of adhered cells/mm2) ([1]; compared with blank culture conditions): decrease in cell attachment
effectiveness in myocardial infarction model [2]: effective
BMDM cytokine release / cytokine concentration (overall) [3]: only had an effect on BMDM cytokine release when immobilized to a hydrogel

lipopolysaccharide [LPS]
concentration of IL-6 [3, 5]: an order of magnitude greater
concentration of MCP-1 [3, 5]: an order of magnitude greater
concentration of IL-10 ([3]; relative to the other culture conditions (LPS: vs Q-Peptide film)): an order of magnitude greater

B1: recombinant human TGF-β3: recombinant human TGF-β3 used to treat wounds in a clinical trial (protein, UniProt P10600 301-412, looked up)
Transforming growth factor …: ALDTNYCFRNLEENCCVRPLYIDFRQDLGWKWVHEPKGYYANFCSGPCPYLRSADTTHSTVLGLYNTLNPEASASPCCVPQDLEPLTILYYVGRTPKVEQLSNMVVKSCKCS
primary and secondary outcomes of a Phase III trial [4]: failed to reach primary and secondary outcomes
